Legend:
[1] = target: human emopamil binding protein and human 7-dehydrocholesterol reductase (hEBP-DHCR7) (Homo sapiens (Human), UniProt Q15125); assay: hEBP-DHCR7 radioligand binding assay (filter binding, membranes of co-expressing HEK293 cells); conditions: competition with [3H] radioligand, 8 doses 0.06 to 5000 nM, Ki calculated from IC50
Method in brief: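 Compound, either single dose 1 μM or eight 5-fold dilutions from 0.06 to 5000 nM, competed with a [3H]-labelled ligand added at 25 nM for binding to co-expressing HEK293 membranes. IC50 came from nonlinear regression, with full block and DMSO as controls, then Cheng–Prusoff conversion to Ki.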

[2] = tested on: zymostenol accumulation (EBP) in EpiSC-derived OPCs; assay: GC/MS-based sterol profiling, zymostenol accumulation in EpiSC-derived OPCs; assay type: cell-based, mouse; conditions: Mus musculus, 24 h, EpiSC-derived OPCs, 24 hr, 8 doses from 0.15 nM to 333 nM; read-out: Mouse Zymostenol GCMS EC50
Method in brief: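 Zymostenol level is expressed relative to that after 24 h with 100 nM positive-control reference, measured by full-scan GC/MS (m/z 458) with cholesterol-d7 internal standard after BSTFA derivatisation. Cells were EpiSC-derived OPCs, 100,000/well in N2B27 without growth factors, treated 24 h, from two or more independent platings.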

[3] = tested on: EpiSC-derived OPCs; assay: In vitro phenotypic screening of OPCs, MBP high-content imaging (percentage of oligodendrocytes); assay type: cell-based, mouse; conditions: Mus musculus, 72 h, 3 days, MBP stain, dose-response 0.5 nM to 1000 nM; read-out: OPC EC50
Method in brief: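 EC50 was fitted by Hill equation to the MBP-positive oligodendrocyte percentage from imaging of fixed, MBP- and DAPI-stained cells. Treatment lasted 3 days at 37 °C, final doses 0.5–1000 nM over 8 points, in growth factor-free N2B27. Cells were EpiSC-derived OPCs, tested in at least two independent platings.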

human emopamil binding protein and human 7-dehydrocholesterol reductase (hEBP-DHCR7), sequence (Q15125 whole entry): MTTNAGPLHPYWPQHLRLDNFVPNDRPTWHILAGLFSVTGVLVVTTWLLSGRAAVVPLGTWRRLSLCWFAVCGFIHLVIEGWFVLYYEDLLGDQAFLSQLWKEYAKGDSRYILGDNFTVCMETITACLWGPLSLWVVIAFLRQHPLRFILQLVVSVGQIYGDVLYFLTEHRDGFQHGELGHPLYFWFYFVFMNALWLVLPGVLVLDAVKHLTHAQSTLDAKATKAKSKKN

| Ki [1] [nM] | EC50 [2] [nM] | EC50 [3] [nM] | Structure (SMILES) |
| --- | --- | --- | --- |
| 40.5 | 17 | 97.5 | CC(C)n1nc(-c2cncc(C(F)(F)F)c2)cc1[C@H]1CC[C@H](N2CCOCC2)CC1 [2*, 4-((1r,4r)-4-(1-isopropyl-3-(5-(trifluoromethyl)pyridin-3-yl)-1H-pyrazol-5-yl)cyclohexyl)morpholine] |
| 38.2 | 44.8 | 280 | CCn1nc(-c2ccc(C(F)(F)F)nc2)nc1[C@H]1CC[C@H](N2CCCOCC2)CC1 [8*, 4-((1r,4r)-4-(1-ethyl-3-(6-(trifluoromethyl)pyridin-3-yl)-1H-1,2,4-triazol-5-yl)cyclohexyl)-1,4-oxazepane] |
| 8.28 | 12.3 | 38.7 | CC(C)n1nc(-c2ccc(C(F)(F)F)nc2)nc1[C@@H]1CC[C@H](N2CCCOCC2)C1 [Compound 4, 4-((1S,3R)-3-(1-isopropyl-3-(6-(trifluoromethyl)pyridin-3-yl)-1H-1,2,4-triazol-5-yl)cyclopentyl)-1,4-oxazepane] |
| 20 | 3.19 | 19.8 | CC(C)n1nc(-c2cncc(C(F)(F)F)c2)cc1[C@H]1[C@@H]2C[C@H](N3CCCOCC3)C[C@@H]21 [Compound 29, 4-((1R,3s,5S,6r)-6-(1-Isopropyl-3-(5-(trifluoromethyl)pyridin-3-yl)-1H-pyrazol-5-yl)bicyclo [3.1.0]hexan-3-yl)-1,4-oxazepane] |
| 34.5 | 52 | 354 | CC(C)n1nc(-c2cccc(C(F)(F)F)n2)cc1[C@H]1[C@@H]2C[C@H](N3CCOCC3)C[C@@H]21 [Compound 32, 4-((1R,3r,5S,6r)-6-(1-isopropyl-3-(6-(trifluoromethyl)pyridin-2-yl)-1H-pyrazol-5-yl)bicyclo[3.1.0]hexan-3-yl)morpholine] |
| 34.5 | 52 | 354 | CC(C)n1nc(-c2cncc(C(F)(F)F)c2)cc1[C@H]1[C@@H]2C[C@H](N3CCOC(C)(C)C3)C[C@@H]21 [Compound 34, 4-((1R,3r,5S,6r)-6-(1-isopropyl-3-(5-(trifluoromethyl)pyridin-3-yl)-1H-pyrazol-5-yl)bicyclo[3.1.0]hexan-3-yl)-2,2-dimethylmorpholine] |
| 43 | 46 | 145 | CC(C)n1nc(-c2ccc(C(F)(F)F)nc2)cc1[C@H]1[C@@H]2C[C@@H](N3CCCOCC3)C[C@@H]21 [Compound 47, 4-((1R,3S,5S,6R)-6-(1-Isopropyl-3-(6-(trifluoromethyl)pyridin-3-yl)-1H-pyrazol-5-yl)bicyclo[3.1.0]hexan-3-yl)-1,4-oxazepane] |
| 50.2 | 2.84 | 14.9 | CC(C)n1nc(-c2cccc(C(F)(F)F)c2)nc1[C@H]1[C@@H]2C[C@@H](N3CCOC[C@@H]3C)C[C@@H]21 [Compound 66, (S)-4-((1R,3r,5S,6S)-6-(1-Isopropyl-3-(3-(trifluoromethyl)phenyl)-1H-1,2,4-triazol-5-yl)bicyclo[3.1.0]hexan-3-yl)-3-methylmorpholin] |
| 50 | 66.5 | 233 | CC(C)n1nc(-c2cccc(C(F)(F)F)c2)nc1[C@H]1[C@@H]2C[C@H](N3CCOC[C@@H]3C)C[C@@H]21 [Compound 67, (S)-4-((1R,3s,5S,6S)-6-(1-Isopropyl-3-(3-(trifluoromethyl)phenyl)-1H-1,2,4-triazol-5-yl)bicyclo[3.1.0]hexan-3-yl)-3-methylmorpholine] |

The next lines start with the compound.

| Structure (SMILES) | Ki [1] [nM] | EC50 [2] [nM] | EC50 [3] [nM] |
| --- | --- | --- | --- |
| CC(C)n1nc(-c2cncc(C(F)(F)F)c2)cc1[C@H]1CC[C@@H](N2CCOCC2)CC1 [1*, 4-((1s,4s)-4-(1-isopropyl-3-(5-(trifluoromethyl)pyridin-3-yl)-1H-pyrazol-5-yl)cyclohexyl)morpholine] | 38.9 | 20.9 | 80.6 |
| CCn1nc(-c2ccc(C(F)(F)F)nc2)nc1[C@H]1CC[C@@H](N2CCCOCC2)CC1 [7*, 4-((1s,4s)-4-(1-ethyl-3-(6-(trifluoromethyl)pyridin-3-yl)-1H-1,2,4-triazol-5-yl)cyclohexyl)-1,4-oxazepane] | 135 | 26.3 | 158 |
| CC(C)n1nc(-c2cccc(C(F)(F)F)c2)nc1[C@H]1[C@@H]2C[C@H](N3CCOCC3)C[C@@H]21 [19*, 4-((1R,3r,5S,6r)-6-(1-isopropyl-3-(3-(trifluoromethyl)phenyl)-1H-1,2,4-triazol-5-yl)bicyclo[3.1.0]hexan-3-yl)morpholine] | 9.93 | 7.92 | 140 |
| CC(C)n1nc(-c2ccc(C(F)(F)F)nc2)nc1[C@H]1CC[C@H](N2CCCOCC2)C1 [Compound 5, 4-((1S,3S)-3-(1-isopropyl-3-(6-(trifluoromethyl)pyridin-3-yl)-1H-1,2,4-triazol-5-yl)cyclopentyl)-1,4-oxazepane] | 52.7 | 44.2 | 196 |
| CC(C)n1nc(-c2ccc(C(F)(F)F)nc2)nc1[C@H]1CC[C@@H](N2CCCOCC2)C1 [Compound 6, 4-((1R,3S)-3-(1-isopropyl-3-(6-(trifluoromethyl)pyridin-3-yl)-1H-1,2,4-triazol-5-yl)cyclopentyl)-1,4-oxazepane] | 34.7 | 10.5 | 34.3 |
| CC(C)n1nc(-c2cccc(C(F)(F)F)n2)cc1[C@H]1[C@@H]2C[C@@H](N3CCOCC3)C[C@@H]21 [Compound 31, 4-((1R,3s,5S,6r)-6-(1-Isopropyl-3-(6-(trifluoromethyl)pyridin-2-yl)-1H-pyrazol-5-yl)bicyclo[3.1.0]hexan-3-yl)morpholine] | 100 | 241 | 643 |
| CC(C)n1nc(-c2cncc(C(F)(F)F)c2)cc1[C@H]1[C@@H]2C[C@@H](N3CCOC(C)(C)C3)C[C@@H]21 [Compound 33, 4-((1R,3s,5S,6r)-6-(1-Isopropyl-3-(5-(trifluoromethyl)pyridin-3-yl)-1H-pyrazol-5-yl)bicyclo[3.1.0]hexan-3-yl)-2,2-dimethylmorpholine] | 19.4 | 5.33 | 30.5 |
| CC(C)n1nc(-c2ccc(C(F)(F)F)nc2)cc1[C@H]1[C@@H]2C[C@H](N3CCCOCC3)C[C@@H]21 [Compound 48, 4-((1R,3S,5S,6R)-6-(1-Isopropyl-3-(6-(trifluoromethyl)pyridin-3-yl)-1H-pyrazol-5-yl)bicyclo[3.1.0]hexan-3-yl)-1,4-oxazepane] | 18.4 | 7.28 | 11.6 |
| CC(C)n1nc(-c2cccc(C(F)(F)F)n2)cc1[C@H]1[C@@H]2C[C@@H](N3CCCOCC3)C[C@@H]21 [Compound 49, 4-((1R,3s,5S,6r)-6-(1-Isopropyl-3-(6-(trifluoromethyl)pyridin-2-yl)-1H-pyrazol-5-yl)bicyclo[3.1.0]hexan-3-yl)-1,4-oxazepane] | 53 | 42 | 75 |
| CC(C)n1nc(-c2cccc(C(F)(F)F)n2)cc1[C@H]1[C@@H]2C[C@H](N3CCCOCC3)C[C@@H]21 [Compound 50, 4-((1R,3r,5S,6r)-6-(1-Isopropyl-3-(6-(trifluoromethyl)pyridin-2-yl)-1H-pyrazol-5-yl)bicyclo[3.1.0]hexan-3-yl)-1,4-oxazepane] | 21 | 1.62 | 7.72 |
| CC(C)n1nc(-c2cncc(C(F)(F)F)c2)nc1[C@H]1[C@@H]2C[C@H](N3CCCOCC3)C[C@@H]21 [Compound 51, 4-((1R,3r,5S,6r)-6-(1-Isopropyl-3-(5-(trifluoromethyl)pyridin-3-yl)-1H-1,2,4-triazol-5-yl)bicyclo[3.1.0]hexan-3-yl)-1,4-oxazepane] | 358 | 77 | 82.5 |
| CC(C)n1nc(-c2cncc(C(F)(F)F)c2)nc1[C@H]1[C@@H]2C[C@@H](N3CCCOCC3)C[C@@H]21 [Compound 52, 4-((1R,3s,5S,6r)-6-(1-Isopropyl-3-(5-(trifluoromethyl)pyridin-3-yl)-1H-1,2,4-triazol-5-yl)bicyclo[3.1.0]hexan-3-yl)-1,4-oxazepane] | 18.1 | 3.1 | 6.29 |
| CCn1nc(-c2cncc(C(F)(F)F)c2)cc1[C@H]1[C@@H]2C[C@@H](N3CCCOCC3)C[C@@H]21 [Compound 53, 4-((1R,3s,5S,6r)-6-(1-Ethyl-3-(5-(trifluoromethyl)pyridin-3-yl)-1H-pyrazol-5-yl)bicyclo[3.1.0]hexan-3-yl)-1,4-oxazepane] | 12.5 | 13.8 | 75 |
| CCn1nc(-c2cncc(C(F)(F)F)c2)cc1[C@H]1[C@@H]2C[C@H](N3CCCOCC3)C[C@@H]21 [Compound 54, 4-((1R,3r,5S,6r)-6-(1-ethyl-3-(5-(trifluoromethyl)pyridin-3-yl)-1H-pyrazol-5-yl)bicyclo[3.1.0]hexan-3-yl)-1,4-oxazepane] | 10.6 | 3 | 12.4 |
| CC(C)n1nc(-c2cncc(OC(F)F)c2)nc1[C@H]1[C@@H]2C[C@@H](N3CCCOCC3)C[C@@H]21 [Compound 68, 4-((1R,3s,5S,6r)-6-(3-(5-(Difluoromethoxy)pyridin-3-yl)-1-isopropyl-1H-1,2,4-triazol-5-yl)bicyclo[3.1.0]hexan-3-yl)-1,4-oxazepane] | 119 | 146 | 417 |
